A value given as a limit tells only on which side of the number the result lay.

For the assay, the target named is T1, HOIP RBR R1032A mutant (Homo sapiens, UniProt Q96EP0, R1032A).
T1 construct: 697-1072; made in house; host or cells: E. coli BL21-GOLD(DE3)
Briefly: Protein LC-MS library screen, covalent labeling. As to conditions: 20 μM compound, 2 μM protein, 24 h incubation. In kind it is binding. How it is done: 3.1 Experimental procedures
Acquisition of mass spectrometry data was carried out using positive electrospray ionisation (ESI) on an Agilent 6224 TOF LC-MS system equipped with a Diode Array Detector (DAD), a Wellplate sampler (held at 10 °C) and an Agilent PLRP-S reverse phase column (50 mm, 1 mm diameter, 5 µm particle size) held at 70 °C. The following mobile phases were used for the LC: Mobile phase A (MP A) = 0.2% Formic acid in water, v/v; Mobile phase B (MP B) = 0.2% Formic acid in MeCN, v/v. The following LC method was employed: 0-0.5 min (10→30% B in A, v/v), 0.5-5 min (30→55% […]
mL/min. Injection volume: 10 µL. The run length was 8 min, and equilibration time 1 min after each sample. […] Between 0.5 and 6 min the TOF mass spectrometer recorded 1 spectrum per second with a scan range between 700 and 2200 AMU. […]
thawed individually and analyzed by protein mass spectrometry as described above. The total ion counts (TICs) detected for unlabelled HOIP and labelled HOIP-(5) conjugate within a peak elution range of 10 seconds were used to calculate the ratio of labelled HOIP RBR over total HOIP RBR content for each sample. The averaged data from 3 independent experiments were analyzed according to a two-step model of reversible ligand binding followed by irreversible covalent […]

T1 sequence (Q96EP0 697-1072 R1032A): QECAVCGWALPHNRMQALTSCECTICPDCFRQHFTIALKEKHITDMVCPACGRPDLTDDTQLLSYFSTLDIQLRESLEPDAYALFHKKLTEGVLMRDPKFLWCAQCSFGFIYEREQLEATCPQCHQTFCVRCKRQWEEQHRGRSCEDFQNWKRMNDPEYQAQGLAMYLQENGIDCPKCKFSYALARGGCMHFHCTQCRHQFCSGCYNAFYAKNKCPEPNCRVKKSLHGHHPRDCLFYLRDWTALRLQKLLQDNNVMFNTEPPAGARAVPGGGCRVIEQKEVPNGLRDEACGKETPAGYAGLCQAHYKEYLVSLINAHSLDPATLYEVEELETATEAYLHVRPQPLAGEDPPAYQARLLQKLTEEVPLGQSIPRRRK

As to `COC(=O)/C=C/CNC(=O)c1cc2c([nH]c1=O)CCC2` [Compound 5], the “labeling of HOIP RBR R1032A” value is over 85%.

For the origin of these results see PMC6383986, “Fragment-Based Covalent Ligand Screening Enables Rapid Discovery of Inhibitors for the RBR E3 Ubiquitin Ligase HOIP” (Journal of the American Chemical Society, 2019).
